Data set [1] deals with MDA-MB-231. In words: Cytotoxicity against human MDA-MB-231 cells at 5 uM by MTT assay. The format is functional. (Formazan colour is commonly taken as a measure of viable cells.)
Data set [2] concerns MDA-MB-231. In words: Cytotoxicity against human MDA-MB-231 cells at 10 uM by MTT assay. The format is functional.
In the next data set the test system is MCF7. In words: Cytotoxicity against human MCF7 cells by MTT assay. The format is functional, cell-based.
Data set [3] concerns the target Cyclin-dependent kinase 5/CDK5 activator 1 (Homo sapiens) (UniProt Q00535+Q15078). In words: Inhibition of human CDK5/p25 using histone H1 as substrate in presence of [gamma33P]ATP after 30 mins by scintillation counting method. Type of data set: protein-complex assay.
Data set [4] concerns the target Dual specificity tyrosine-phosphorylation-regulated kinase 1A (Rattus norvegicus) (UniProt Q63470). In words: Inhibition of rat DYRK1A using myelin basic protein as substrate in presence of [gamma33P]ATP after 30 mins by scintillation counting method.
Data set [5] deals with Glycogen synthase kinase-3 (Sus scrofa) (UniProt B2LUN4+I6LNT8). In words: Inhibition of pig GSK3alpha/beta using GS-1 as substrate in presence of [gamma33P]ATP after 30 mins by scintillation counting method.
Data set [6] deals with T1, Serine/threonine-protein kinase haspin (Homo sapiens) (UniProt Q8TF76).
T1 sequence (whole entry): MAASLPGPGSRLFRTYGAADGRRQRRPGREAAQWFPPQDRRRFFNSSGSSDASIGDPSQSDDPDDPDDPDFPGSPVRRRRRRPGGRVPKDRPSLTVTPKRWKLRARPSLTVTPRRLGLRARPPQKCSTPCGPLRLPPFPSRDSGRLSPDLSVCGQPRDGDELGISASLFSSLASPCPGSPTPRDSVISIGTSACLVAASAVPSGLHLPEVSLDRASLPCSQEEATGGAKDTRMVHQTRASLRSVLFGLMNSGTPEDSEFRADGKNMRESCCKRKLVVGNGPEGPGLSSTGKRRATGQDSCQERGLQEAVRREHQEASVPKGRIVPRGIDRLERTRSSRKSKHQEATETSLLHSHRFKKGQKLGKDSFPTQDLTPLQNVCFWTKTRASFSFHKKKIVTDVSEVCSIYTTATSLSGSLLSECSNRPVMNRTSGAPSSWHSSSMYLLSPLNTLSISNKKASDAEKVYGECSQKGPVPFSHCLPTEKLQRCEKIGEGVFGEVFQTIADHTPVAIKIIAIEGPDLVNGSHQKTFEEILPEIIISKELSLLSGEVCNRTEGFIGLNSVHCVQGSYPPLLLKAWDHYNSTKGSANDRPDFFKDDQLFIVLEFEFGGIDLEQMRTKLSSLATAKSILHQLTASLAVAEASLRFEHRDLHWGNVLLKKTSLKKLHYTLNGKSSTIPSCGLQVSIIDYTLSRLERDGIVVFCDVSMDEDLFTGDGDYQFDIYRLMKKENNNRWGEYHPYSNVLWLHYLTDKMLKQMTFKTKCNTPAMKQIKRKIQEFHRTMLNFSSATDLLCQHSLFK
In words: Inhibition of human HASPIN.

A short description of data set [7]: Tmax in NOD/SCID mouse at 0.5 mg/kg, ip administered as single dose by LC-MS/MS method. Type of data set: ADME, organism-based. As to conditions: in vivo.
A short description of data set [8]: Cmax in NOD/SCID mouse at 10 mg/kg, ip administered as single dose by LC-MS/MS method. The format is ADME, organism-based. On the set-up: dose 10 mg/kg, route intraperitoneal. As to conditions: in vivo.
Data set [9] can be described thus: AUC (0 to 8 hrs) in NOD/SCID mouse at 40 mg/kg, ip administered as single dose by LC-MS/MS method. Type of data set: ADME, organism-based. Set-up: time < 8 hr, dose 40 mg/kg, route intraperitoneal. As to conditions: in vivo.
A short description of data set [10]: Tmax in NOD/SCID mouse at 10 mg/kg, ip administered twice by LC-MS/MS method. The format is ADME, organism-based. As to conditions: in vivo.
Data set [11] deals with RAC-alpha serine/threonine-protein kinase (Homo sapiens) (UniProt P31749). In words: Inhibition of human wild type partial length AKT1 expressed in bacterial expression system at 10 uM by KinomeScan method relative to control.
In data set [12] the target is Receptor tyrosine-protein kinase erbB-2 (Homo sapiens) (UniProt P04626). In words: Inhibition of human wild type partial length ERBB2 (K646 to V1225 residues) expressed in mammalian expression system at 10 uM by KinomeScan method relative to control.
The target in data set [13] is Mitogen-activated protein kinase 3 (Homo sapiens) (UniProt P27361). In words: Inhibition of human wild type full length ERK1 (M1 to P379 residues) expressed in bacterial expression system at 10 uM by KinomeScan method relative to control.
The target of data set [14] is Tyrosine-protein kinase Fyn (Homo sapiens) (UniProt P06241). In words: Inhibition of human wild type partial length FYN (T243 to L534 residues) expressed in bacterial expression system at 10 uM by KinomeScan method relative to control.
In data set [15] the target is Tyrosine-protein kinase JAK3 (Homo sapiens) (UniProt P52333). In words: Inhibition of human wild type partial length JAK3 (I781 to S1124 residues) expressed in mammalian expression system at 10 uM by KinomeScan method relative to control.
Data set [16] has as its target Hepatocyte growth factor receptor (Homo sapiens) (UniProt P08581). In words: Inhibition of human wild type partial length MET (D1010 to S1367 residues) expressed in bacterial expression system at 10 uM by KinomeScan method relative to control.
Data set [17] has as its target Muscle, skeletal receptor tyrosine-protein kinase (Homo sapiens) (UniProt O15146). In words: Inhibition of human wild type partial length MUSK (M553 to V869 residues) expressed in bacterial expression system at 10 uM by KinomeScan method relative to control.
For data set [18], the target named is Platelet-derived growth factor receptor beta (Homo sapiens) (UniProt P09619). In words: Inhibition of human wild type partial length PDGFRB (V582 to Y1009 residues) expressed in bacterial expression system at 10 uM by KinomeScan method relative to control.
The target of data set [19] is Tyrosine-protein kinase TXK (Homo sapiens) (UniProt P42681). In words: Inhibition of human wild type partial length TXK (L238 to W527 residues) expressed in bacterial expression system at 10 uM by KinomeScan method relative to control.
Data set [20] deals with Tyrosine-protein kinase ZAP-70 (Homo sapiens) (UniProt P43403). In words: Inhibition of human wild type partial length ZAP70 (D20 to G299 residues) expressed in mammalian expression system at 10 uM by KinomeScan method relative to control.
Data set [21] deals with Phosphatidylinositol 4,5-bisphosphate 3-kinase catalytic subunit alpha isoform (Homo sapiens, UniProt P42336, H1047R). In words: Inhibition of PI3Kalpha H1047R mutant (unknown origin) using PIP2 liposomes as substrate in presence of biotin-labeled PIP3 and GST-GRP1-PH by streptavidin-HRP based assays.
The subject of data set [22] is Mus musculus. In words: In vivo inhibition of Akt phosphorylation at ser-473 residue in NOD/SCID mouse tumor xenografted with HER2-amplified human HCC1954 cells at 10 mg/kg, ip administered once daily for 18 days measured after 1 hr last dose by […]. Type of data set: functional, organism-based. For orientation: A xenograft is tissue or cells of one species grown in another, often human tumour cells in immunodeficient mice.

Data set [23] concerns Mus musculus. In words: In vivo inhibition of SRC phosphorylation at Tyr-416 residue in NOD/SCID mouse tumor xenografted with HER2-amplified human HCC1954 cells at 10 mg/kg, ip administered once daily for 18 days measured after 1 hr last dose by […]. Type of data set: functional, organism-based.

Activity calls are given as the source filed them. The calls are words filed in the database; no cut-off is given here. Where only a bound is given, the exact number is not on record here.

Muscle, skeletal receptor tyrosine-protein kinase (Homo sapiens), sequence (O15146 whole entry, the tested form may be a part): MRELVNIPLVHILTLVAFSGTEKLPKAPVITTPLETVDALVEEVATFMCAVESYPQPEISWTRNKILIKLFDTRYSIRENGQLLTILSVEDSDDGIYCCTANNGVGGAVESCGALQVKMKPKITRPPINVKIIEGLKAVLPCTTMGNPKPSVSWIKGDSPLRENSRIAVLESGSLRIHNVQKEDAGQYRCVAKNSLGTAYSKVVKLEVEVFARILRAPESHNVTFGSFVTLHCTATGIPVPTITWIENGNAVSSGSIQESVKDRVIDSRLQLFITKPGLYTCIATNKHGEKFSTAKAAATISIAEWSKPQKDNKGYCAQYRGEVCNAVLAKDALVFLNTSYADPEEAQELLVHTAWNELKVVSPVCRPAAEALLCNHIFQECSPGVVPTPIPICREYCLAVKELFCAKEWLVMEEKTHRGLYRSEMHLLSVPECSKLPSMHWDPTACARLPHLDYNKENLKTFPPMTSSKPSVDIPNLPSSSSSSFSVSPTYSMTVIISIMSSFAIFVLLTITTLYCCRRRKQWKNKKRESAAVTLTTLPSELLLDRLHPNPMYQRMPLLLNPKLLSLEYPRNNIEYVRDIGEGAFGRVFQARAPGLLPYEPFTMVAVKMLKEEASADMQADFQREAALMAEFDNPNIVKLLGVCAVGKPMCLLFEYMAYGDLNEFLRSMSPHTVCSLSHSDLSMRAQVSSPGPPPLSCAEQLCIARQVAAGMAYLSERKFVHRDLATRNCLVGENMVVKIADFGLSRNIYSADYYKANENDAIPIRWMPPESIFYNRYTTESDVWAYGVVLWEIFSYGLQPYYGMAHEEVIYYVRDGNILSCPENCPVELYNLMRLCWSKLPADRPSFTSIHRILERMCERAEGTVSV
Tyrosine-protein kinase ZAP-70 (Homo sapiens), sequence (P43403 whole entry, the tested form may be a part, canonical isoform): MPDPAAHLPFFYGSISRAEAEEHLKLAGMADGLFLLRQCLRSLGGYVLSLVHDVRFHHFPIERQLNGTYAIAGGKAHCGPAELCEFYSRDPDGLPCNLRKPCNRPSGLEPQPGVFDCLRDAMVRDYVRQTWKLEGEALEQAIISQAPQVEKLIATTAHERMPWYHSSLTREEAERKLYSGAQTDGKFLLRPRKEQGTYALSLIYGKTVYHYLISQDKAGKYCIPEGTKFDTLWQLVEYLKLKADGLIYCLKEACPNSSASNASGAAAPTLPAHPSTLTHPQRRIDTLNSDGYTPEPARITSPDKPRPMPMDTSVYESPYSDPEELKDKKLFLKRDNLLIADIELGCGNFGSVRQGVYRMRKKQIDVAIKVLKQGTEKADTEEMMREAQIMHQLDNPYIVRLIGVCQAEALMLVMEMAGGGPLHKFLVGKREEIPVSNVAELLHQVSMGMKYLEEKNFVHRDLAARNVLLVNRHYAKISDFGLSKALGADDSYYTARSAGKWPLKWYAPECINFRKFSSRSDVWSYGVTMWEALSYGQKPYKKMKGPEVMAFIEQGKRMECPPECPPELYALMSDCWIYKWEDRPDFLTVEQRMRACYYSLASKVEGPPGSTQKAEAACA
Tyrosine-protein kinase Fyn (Homo sapiens), sequence (P06241 2-537 limits assumed): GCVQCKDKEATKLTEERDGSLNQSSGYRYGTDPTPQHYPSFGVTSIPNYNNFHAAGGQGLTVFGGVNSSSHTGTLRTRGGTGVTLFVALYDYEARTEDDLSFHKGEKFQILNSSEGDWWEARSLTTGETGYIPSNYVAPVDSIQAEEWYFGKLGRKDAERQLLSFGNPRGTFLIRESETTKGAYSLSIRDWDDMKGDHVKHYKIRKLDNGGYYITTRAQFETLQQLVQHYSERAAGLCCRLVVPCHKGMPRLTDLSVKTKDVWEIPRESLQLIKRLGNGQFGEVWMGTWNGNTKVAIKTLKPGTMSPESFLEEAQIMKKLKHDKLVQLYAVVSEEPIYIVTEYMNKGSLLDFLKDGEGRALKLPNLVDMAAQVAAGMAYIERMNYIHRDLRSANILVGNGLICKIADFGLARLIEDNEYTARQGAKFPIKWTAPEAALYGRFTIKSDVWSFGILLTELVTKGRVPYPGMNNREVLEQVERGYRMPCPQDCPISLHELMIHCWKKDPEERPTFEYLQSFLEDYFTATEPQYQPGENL
Platelet-derived growth factor receptor beta (Homo sapiens), sequence (P09619 whole entry, the tested form may be a part): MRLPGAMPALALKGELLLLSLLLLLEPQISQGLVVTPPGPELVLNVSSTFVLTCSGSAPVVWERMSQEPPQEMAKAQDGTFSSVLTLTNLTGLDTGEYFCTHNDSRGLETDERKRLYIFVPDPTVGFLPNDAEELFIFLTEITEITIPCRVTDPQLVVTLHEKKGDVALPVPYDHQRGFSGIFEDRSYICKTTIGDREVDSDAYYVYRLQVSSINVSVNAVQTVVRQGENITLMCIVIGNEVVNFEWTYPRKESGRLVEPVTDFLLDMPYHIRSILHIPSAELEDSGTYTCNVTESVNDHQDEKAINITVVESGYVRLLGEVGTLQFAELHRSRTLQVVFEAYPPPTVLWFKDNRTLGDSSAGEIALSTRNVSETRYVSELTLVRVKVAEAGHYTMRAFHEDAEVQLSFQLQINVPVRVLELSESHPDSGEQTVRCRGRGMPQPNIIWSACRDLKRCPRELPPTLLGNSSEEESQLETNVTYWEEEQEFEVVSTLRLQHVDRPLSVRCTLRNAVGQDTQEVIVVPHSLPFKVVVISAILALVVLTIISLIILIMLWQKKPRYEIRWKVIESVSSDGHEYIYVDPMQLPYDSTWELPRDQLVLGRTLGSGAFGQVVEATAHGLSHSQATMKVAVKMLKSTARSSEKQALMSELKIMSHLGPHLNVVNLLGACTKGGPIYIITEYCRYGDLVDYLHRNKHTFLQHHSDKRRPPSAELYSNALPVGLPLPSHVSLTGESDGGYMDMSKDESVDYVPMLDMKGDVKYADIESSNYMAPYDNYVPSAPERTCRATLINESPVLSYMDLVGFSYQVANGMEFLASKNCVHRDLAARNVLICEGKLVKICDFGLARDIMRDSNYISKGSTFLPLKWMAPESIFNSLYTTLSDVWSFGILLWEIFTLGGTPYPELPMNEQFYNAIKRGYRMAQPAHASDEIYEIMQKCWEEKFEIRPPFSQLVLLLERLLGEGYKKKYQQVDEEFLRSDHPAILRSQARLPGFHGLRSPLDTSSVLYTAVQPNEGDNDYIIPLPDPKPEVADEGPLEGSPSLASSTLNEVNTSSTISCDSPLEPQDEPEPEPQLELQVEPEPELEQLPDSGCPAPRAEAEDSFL
Tyrosine-protein kinase TXK (Homo sapiens), sequence (P42681 whole entry, the tested form may be a part): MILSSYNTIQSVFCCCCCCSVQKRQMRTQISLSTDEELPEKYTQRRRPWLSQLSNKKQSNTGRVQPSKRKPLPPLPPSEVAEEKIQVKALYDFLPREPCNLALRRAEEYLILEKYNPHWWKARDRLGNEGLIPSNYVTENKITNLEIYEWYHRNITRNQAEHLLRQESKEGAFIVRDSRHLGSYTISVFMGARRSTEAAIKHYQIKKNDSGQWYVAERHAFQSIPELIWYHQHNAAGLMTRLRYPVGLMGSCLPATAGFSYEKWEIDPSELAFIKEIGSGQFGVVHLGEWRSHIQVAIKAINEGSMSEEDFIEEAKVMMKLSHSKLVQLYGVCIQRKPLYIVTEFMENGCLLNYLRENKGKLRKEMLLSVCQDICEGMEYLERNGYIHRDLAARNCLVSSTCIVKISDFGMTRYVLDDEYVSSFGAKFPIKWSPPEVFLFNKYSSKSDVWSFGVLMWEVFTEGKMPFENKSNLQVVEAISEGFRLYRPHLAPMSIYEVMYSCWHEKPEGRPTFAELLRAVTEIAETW
RAC-alpha serine/threonine-protein kinase (Homo sapiens), sequence (P31749 whole entry, the tested form may be a part): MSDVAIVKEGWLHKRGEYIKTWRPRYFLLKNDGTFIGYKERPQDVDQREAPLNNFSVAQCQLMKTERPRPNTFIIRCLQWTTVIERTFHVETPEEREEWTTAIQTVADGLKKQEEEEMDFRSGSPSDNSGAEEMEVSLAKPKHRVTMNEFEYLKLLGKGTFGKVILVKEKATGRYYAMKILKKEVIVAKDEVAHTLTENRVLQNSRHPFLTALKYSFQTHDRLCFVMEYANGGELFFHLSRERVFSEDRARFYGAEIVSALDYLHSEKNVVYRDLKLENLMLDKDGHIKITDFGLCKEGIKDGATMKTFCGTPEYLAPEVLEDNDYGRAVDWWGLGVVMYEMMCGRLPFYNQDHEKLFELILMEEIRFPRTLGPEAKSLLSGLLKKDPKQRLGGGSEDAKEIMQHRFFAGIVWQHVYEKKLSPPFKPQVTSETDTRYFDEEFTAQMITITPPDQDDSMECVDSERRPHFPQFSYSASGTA
Mitogen-activated protein kinase 3 (Homo sapiens), sequence (P27361 whole entry, the tested form may be a part): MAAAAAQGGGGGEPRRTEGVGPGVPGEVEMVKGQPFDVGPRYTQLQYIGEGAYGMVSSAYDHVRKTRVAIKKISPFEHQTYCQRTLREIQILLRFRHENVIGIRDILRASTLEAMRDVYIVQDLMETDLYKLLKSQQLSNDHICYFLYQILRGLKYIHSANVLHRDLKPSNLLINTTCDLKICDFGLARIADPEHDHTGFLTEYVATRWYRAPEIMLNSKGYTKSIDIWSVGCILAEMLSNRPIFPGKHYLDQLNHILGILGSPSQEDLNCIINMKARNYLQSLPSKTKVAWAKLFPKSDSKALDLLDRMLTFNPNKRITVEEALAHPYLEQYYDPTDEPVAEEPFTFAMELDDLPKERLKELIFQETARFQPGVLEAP
Cyclin-dependent kinase 5/CDK5 activator 1 (Homo sapiens), sequence (Q00535 whole entry): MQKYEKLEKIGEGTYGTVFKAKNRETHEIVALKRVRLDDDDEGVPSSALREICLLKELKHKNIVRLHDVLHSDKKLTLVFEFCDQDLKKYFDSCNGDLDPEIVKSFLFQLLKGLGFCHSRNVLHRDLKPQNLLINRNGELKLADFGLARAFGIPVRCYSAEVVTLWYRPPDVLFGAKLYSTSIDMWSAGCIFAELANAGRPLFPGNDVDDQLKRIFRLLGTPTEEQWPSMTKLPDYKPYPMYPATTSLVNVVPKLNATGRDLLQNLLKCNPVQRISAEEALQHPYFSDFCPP
Cyclin-dependent kinase 5/CDK5 activator 1 (Homo sapiens), sequence (Q15078 99-307 partner limits assumed): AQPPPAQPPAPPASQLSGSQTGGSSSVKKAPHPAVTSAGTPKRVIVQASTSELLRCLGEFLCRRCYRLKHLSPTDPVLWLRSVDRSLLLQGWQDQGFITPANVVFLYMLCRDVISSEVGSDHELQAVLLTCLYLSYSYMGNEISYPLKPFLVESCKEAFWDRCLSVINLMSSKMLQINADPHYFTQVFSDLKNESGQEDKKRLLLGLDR

In the case of `Cc1nc2nc(Sc3ccccc3)cnc2cc1NC(=O)Nc1ccccc1`, the Activity in the data set on MDA-MB-231 [1] and with MDA-MB-231 [2] was greater than 50% throughout. Also, the IC50 (in general, the midpoint of a concentration-inhibition curve) in the data set on MCF7 came out at 3.1 µM; in data set [21], 22 µM. The inhibition entry in data set [3], in data set [4], in data set [5] and in data set [6] was “inactive” each time. Also, the Tmax (usually the time from dosing to the highest level) in data set [7] was found to be 30 min; in data set [10] it was 2 h. In addition, the Cmax (commonly the maximum level reached in the sampled fluid or tissue) in data set [8] lay within 4.3 to 4.32 µM. Further, in [9], the area under the curve AUC(0-t) (in general, exposure summed from dosing to a finite time, without extrapolation to infinity) at 8 h stood at 131 µM·h. Also, the inhibition (in general, how much of the control response was suppressed) in data set [11] was 3%; in data set [12], 0%; in data set [13], 11%; in [14], 6%; in data set [15], 0%; in data set [16], 40%. The inhibition came out at 0% in data set [17], 0% in [18], 8% in data set [19] and 0% in [20]. Also, the inhibition entry in the data set with Mus musculus [22] and in the data set on Mus musculus [23] was “Active” each time.

Source of the values: ChEMBL document CHEMBL4000195, “Design and synthesis of novel 7-aminosubstituted pyrido[2,3-b]pyrazines exhibiting anti-breast cancer activity” (Eur J Med Chem, 2017).
